Assay results published in article PMC10933344, “A lncRNA Dleu2-encoded peptide relieves autoimmunity by facilitating Smad3-mediated Treg induction” (EMBO Reports, 2024).

Tested on: CD4+ T cells in CNS of EAE mice
Assay: Flow cytometry of CNS T cells of treated EAE mice
Assay type: in vivo, mouse
Conditions: 100 μg i.v.
Method: Figure 5 Dleu2-17aa attenuates EAE by promoting Treg cells. (A) Schematic diagram of MOG-induced EAE and treatment strategies with Dleu2-17aa, scrPEP, and Glatiramer. Mice received 100 μg of Dleu2-17aa or scrPEP every 3 days via i.v. injection or 150 μg of Glatiramer every day for seven times via s.c. on days 9 to 15. (B) Clinical scores were examined daily from day 9 using a scoring system ranging from 0 (no sign) to 5 (complete paralysis or dead). The x-axis represents experimental days, and the y-axis represents symptom severity (n = 8–9). (C) Representative Luxol fast blue (LFB) and hematoxylin and eosin staining (H&E) staining sections for treated EAE spinal cord. Scale bars: 100 μm. (D) Histopathology scores of inflammations and demyelination in treated EAE mice spinal cord using a scoring system ranging from 0 (no inflammatory cells or demyelination) to 4 (extensive inflammatory cells infiltration or confluent foci of demyelination) (n = 5–8). (E) Representative dot plots (left panel) and frequency (right panel) of CD44^hiCD62L^lo activated T cells, Foxp3^+ Treg cells, IL-17A^+ Th17 cells, and IFN-γ^+ Th1 cells gated on CD4^+ T cells in the spleen 14 days post immunization of MOG (n = 3). (F) Representative dot plots and frequency of CD4^+, Foxp3^+ Treg cells, and IFN-γ^+ Th1 cells gated on CD4^+ T cells in the CNS 14 days post immunization of MOG (n = 3). Data information: n indicates biological replicate. Error bars are mean ± SEM; *P < 0.05, **P < 0.01, and ***P < 0.001, n.s. indicates no significant difference. Statistical analysis was by two-way ANOVA for (B) and two-tailed Student’s t-test for (D–F). Source data are available online for this figure. TEXT PRINTED IN THE PICTURE: (E) scrPEP: Spleen: CD62L-PE-DF594 / CD44-PE: 78.2; Spleen: Foxp3-PE / CD4-APC: 7.38; Spleen: IFN-γ-Percp-cy5.5 / Il-17A-FITC: 4.67; Spleen: IFN-γ-Percp-cy5.5 / Il-17A-FITC: 0.18; Spleen: IFN-γ-Percp-cy5.5 / Il-17A-FITC: 94.7; Spleen: IFN-γ-Percp-cy5.5 / Il-17A-FITC: 0.44 | (E) Dleu2-17aa: Spleen: CD62L-PE-DF594 / CD44-PE: 37.2; Spleen: Foxp3-PE / CD4-APC: 12.9; Spleen: IFN-γ-Percp-cy5.5 / Il-17A-FITC: 2.83; Spleen: IFN-γ-Percp-cy5.5 / Il-17A-FITC: 0.26; Spleen: IFN-γ-Percp-cy5.5 / Il-17A-FITC: 96.1; Spleen: IFN-γ-Percp-cy5.5 / Il-17A-FITC: 0.79 | (F) scrPEP: CNS: FSC / CD4-APC: 9.03; CNS: Foxp3-PE / CD4-APC: 8.47; CNS: IFN-γ-Percp-cy5.5 / Il-17A-FITC: 22.9; CNS: IFN-γ-Percp-cy5.5 / Il-17A-FITC: 2.00; CNS: IFN-γ-Percp-cy5.5 / Il-17A-FITC: 69.7; CNS: IFN-γ-Percp-cy5.5 / Il-17A-FITC: 5.44 | (F) Dleu2-17aa: CNS: FSC / CD4-APC: 3.33; CNS: Foxp3-PE / CD4-APC: 15.5; CNS: IFN-γ-Percp-cy5.5 / Il-17A-FITC: 13.9; CNS: IFN-γ-Percp-cy5.5 / Il-17A-FITC: 2.65; CNS: IFN-γ-Percp-cy5.5 / Il-17A-FITC: 77.7; CNS: IFN-γ-Percp-cy5.5 / Il-17A-FITC: 5.79 DOUBTS OF THE COPYIST ABOUT THIS PICTURE: Panels E and F: the gate and quadrant numbers in the dot plots are printed with no measure or unit; the tissue heading and the axis labels of each plot are written in front of them. For the quadrant plots the order is upper left, upper right, lower left, lower right. / Panels E and F: the gate numbers are in small print, so 3, 5, 6, 8 and 9 are best readings: E scrPEP 78.2, 7.38, 4.67, 0.18, 94.7; E Dleu2-17aa 37.2, 12.9, 2.83, 0.26, 96.1, 0.79; F scrPEP 9.03, 8.47, 22.9, 69.7, 5.44; F Dleu2-17aa 3.33, 15.5, 13.9, 2.65, 5.79.
For active EAE immunization, myelin oligodendrocyte glycoprotein peptide (MOGp35–55, […], GenScript) was emulsified in complete Freund adjuvant (Sigma-Aldrich). An equivalent of 300 μg MOG peptide was injected per mouse subcutaneously followed by 200 ng of pertussis toxin (Merck-Calbiochem) injection intravenously on day 0 and day 2 of immunization. […]

## ARGPARRMRGGRRRRLR [scrPEP, scrambled control peptide of Dleu2-17aa]
Replicate 1
  CD4+ / Live Cells(%): 9.03%
  Foxp3+/ CD4+ Cells (%): 8.94%
  IFN-γ+/ CD4+ Cells(%): 22.8%
Replicate 2
  CD4+ / Live Cells(%): 10.1%
  Foxp3+/ CD4+ Cells (%): 9.11%
  IFN-γ+/ CD4+ Cells(%): 22.9%
Replicate 3
  CD4+ / Live Cells(%): 9.74%
  Foxp3+/ CD4+ Cells (%): 8.47%
  IFN-γ+/ CD4+ Cells(%): 23.8%
